Reference: the Kinase Knowledgebase extract (Sharma et al. 2016)

Target: MAPK14 (human) (UniProt Q16539)
Assay: Inhibition of MAPK14 Kinase Activity

Chain of MAPK14 (human) (Q16539 whole entry, looked up): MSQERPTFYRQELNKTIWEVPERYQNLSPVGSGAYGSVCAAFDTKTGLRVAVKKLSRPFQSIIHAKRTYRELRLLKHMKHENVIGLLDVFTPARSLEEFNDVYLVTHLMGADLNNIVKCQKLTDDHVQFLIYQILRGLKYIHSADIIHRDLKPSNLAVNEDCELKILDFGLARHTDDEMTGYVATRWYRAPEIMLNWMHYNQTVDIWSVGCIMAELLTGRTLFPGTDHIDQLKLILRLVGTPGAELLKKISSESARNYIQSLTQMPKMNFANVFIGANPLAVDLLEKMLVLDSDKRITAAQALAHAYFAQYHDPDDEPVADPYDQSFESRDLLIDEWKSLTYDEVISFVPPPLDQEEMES

SMILES | IC50 [nM]
COCCn1c(SC)nc(-c2ccc(F)cc2)c1-c1ccnc(NC(=O)C2CC2)c1 | 128
COCCn1c(SC)nc(-c2ccc(F)cc2)c1-c1ccnc(NC(=O)C(C)(C)C)c1 | 1760
COCCn1c(SC)nc(-c2ccc(F)cc2)c1-c1ccnc(NCCc2ccccc2)c1 | 26
COCCn1c(SC)nc(-c2ccc(F)cc2)c1-c1ccnc(NC(=O)CCc2ccc(OC)c(OC)c2)c1 | 216
COCCn1c(SC)nc(-c2ccc(F)cc2)c1-c1ccnc(NC(=O)C[C@@H](C)c2ccccc2)c1 | 114
COCCn1c(SC)nc(-c2ccc(F)cc2)c1-c1ccnc(NC(=O)CCc2ccc(OC)c(OC)c2OC)c1 | 84
COCCn1c(SC)nc(-c2ccc(F)cc2)c1-c1ccnc(NC(=O)CCc2ccc(OC)cc2)c1 | 48
COCCn1c(SC)nc(-c2ccc(F)cc2)c1-c1ccnc(NC(=O)CCC(C)C)c1 | 179
COCCn1c(SC)nc(-c2ccc(F)cc2)c1-c1ccnc(NC(=O)C(Oc2ccccc2)C(C)C)c1 (stereo not given) | 195
COCCn1c(SC)nc(-c2ccc(F)cc2)c1-c1ccnc(NC(=O)CCCc2ccccc2)c1 | 115
COCCn1c(SC)nc(-c2ccc(F)cc2)c1-c1ccnc(NC(=O)C2CCC2)c1 | 116
COCCn1c(SC)nc(-c2ccc(F)cc2)c1-c1ccnc(NC(=O)CCc2cccc(OC)c2)c1 | 93
COCCn1c(SC)nc(-c2ccc(F)cc2)c1-c1ccnc(NC(=O)C(C)Oc2ccccc2)c1 (stereo not given) | 103
CCC(C)C(=O)Nc1cc(-c2c(-c3ccc(F)cc3)nc(SC)n2CCOC)ccn1 (stereo not given) | 311
COCCn1c(SC)nc(-c2ccc(F)cc2)c1-c1ccnc(NC(=O)c2ccc(OC)cc2)c1 | 392
COCCn1c(SC)nc(-c2ccc(F)cc2)c1-c1ccnc(NC(=O)CCc2ccc(C)cc2)c1 | 90
COCCn1c(SC)nc(-c2ccc(F)cc2)c1-c1ccnc(NC(=O)C[C@H](C)c2ccccc2)c1 | 133
COCCn1c(SC)nc(-c2ccc(F)cc2)c1-c1ccnc(NC(=O)CCc2ccc(S(C)(=O)=O)cc2)c1 | 220
COCCn1c(SC)nc(-c2ccc(F)cc2)c1-c1ccnc(NC(=O)CC2CCCC2)c1 | 108
COCCn1c(SC)nc(-c2ccc(F)cc2)c1-c1ccnc(N)c1 | 1420
COCCn1c(SC)nc(-c2ccc(F)cc2)c1-c1ccnc(NC(=O)CC(C)C)c1 | 103
COCCn1c(SC)nc(-c2ccc(F)cc2)c1-c1ccnc(NC(=O)CCC2CCCCC2)c1 | 196
COCCn1c(SC)nc(-c2ccc(F)cc2)c1-c1ccnc(NC(=O)c2ccccc2)c1 | 244

SMILES | IC50 [nM]
CCCCC(=O)Nc1cc(-c2c(-c3ccc(F)cc3)nc(SC)n2CCOC)ccn1 | 83
COCCn1c(SC)nc(-c2ccc(F)cc2)c1-c1ccnc(NC(=O)CCc2cccc(OC)c2OC)c1 | 91
COCCn1c(SC)nc(-c2ccc(F)cc2)c1-c1ccnc(NC(=O)Cc2ccc(OC)cc2)c1 | 213
COCCn1c(SC)nc(-c2ccc(F)cc2)c1-c1ccnc(NCC(C)c2ccccc2)c1 (stereo not given) | 35
COCCn1c(SC)nc(-c2ccc(F)cc2)c1-c1ccnc(NC(C)=O)c1 | 108
COCCn1c(SC)nc(-c2ccc(F)cc2)c1-c1ccnc(NC(=O)/C=C/c2ccccc2)c1 | 193
COCCn1c(SC)nc(-c2ccc(F)cc2)c1-c1ccnc(NC(=O)C2CCCCC2)c1 | 156
COCCn1c(SC)nc(-c2ccc(F)cc2)c1-c1ccnc(NC(=O)CCC2CCCC2)c1 | 224
COCCn1c(SC)nc(-c2ccc(F)cc2)c1-c1ccnc(NC(=O)CCc2ccc(OC)cc2OC)c1 | 178
COCCn1c(SC)nc(-c2ccc(F)cc2)c1-c1ccnc(NC(=O)CCc2ccc(SC)cc2)c1 | 254
COCCn1c(SC)nc(-c2ccc(F)cc2)c1-c1ccnc(NC(=O)CC(C)c2ccccc2)c1 (stereo not given) | 60
COCCn1c(SC)nc(-c2ccc(F)cc2)c1-c1ccnc(NC(=O)C2CCCC2)c1 | 458
COCCn1c(SC)nc(-c2ccc(F)cc2)c1-c1ccnc(NC(=O)CCc2ccccc2)c1 | 63
COCCn1c(SC)nc(-c2ccc(F)cc2)c1-c1ccnc(NC(=O)CCc2ccccc2OC)c1 | 93
COCCn1c(SC)nc(-c2ccc(F)cc2)c1-c1ccnc(NC(=O)Cc2ccccc2)c1 | 386
COCCn1c(SC)nc(-c2ccc(F)cc2)c1-c1ccnc(NC(=O)CCCCc2ccccc2)c1 | 115
COCCn1c(SC)nc(-c2ccc(F)cc2)c1-c1ccnc(NC(=O)C(C)Cc2ccccc2)c1 (stereo not given) | 77
COCCn1c(SC)nc(-c2ccc(F)cc2)c1-c1ccnc(NC(=O)CCc2cc(OC)c(OC)c(OC)c2)c1 | 123
COCCn1c(SC)nc(-c2ccc(F)cc2)c1-c1ccnc(NC(=O)[C@H]2C[C@@H]2c2ccccc2)c1 | 168
COCCn1c(SC)nc(-c2ccc(F)cc2)c1-c1ccnc(NC(=O)CC2CCCCC2)c1 | 219
COCCn1c(SC)nc(-c2ccc(F)cc2)c1-c1ccnc(NC(=O)CCCc2ccc(OC)cc2)c1 | 97
COCCn1c(SC)nc(-c2ccc(F)cc2)c1-c1ccnc(NC(=O)CCc2ccc(C(C)(C)C)cc2)c1 | 2450
